In publication PMC5569033 (2017):

Experiments:
[1] = system: Tyr1M1 (RNA, aptamer) GGAUGUAACUGAAUGAAAUGGUGAAGGACGGGUCCAGCCCUUGGCAGUCAACUCGUGCGAUCGUGAAAACGGGGCAAGAUGGCCUUACAGCGGUCAAUACGGGGGUCAUCAGAUAGGGAGGCCAGGAUAUGUUGAGUAGAGUGUGAGCUCCGUAACUAGUUACAUC; test: dye fluorescence in droplets; settings: 200 mM KCl, 10 mM NaCl, 10 mM MgCl2; 100 mM Tris pH 7.5; 30 μM RNA, 3 μM dye; salmon sperm DNA; with secreted tyrosine
[2] = system: Spinach2-Streptavidin aptamer (Streptavidin (SA)) (RNA, aptamer) GAUGUAACUGAAUGAAAUGGUGAAGGACGGGUCCACGACCGACCAGAAUCAUGCAAGUGCGUAAGAUAGUCGCGGGCCGGGGUUGUUGAGUAGAGUGUGAGCUCCGUAACUAGUUACAUC; test: dye fluorescence, plate reader; settings: 200 mM KCl, 10 mM NaCl, 1 mM MgCl2; 100 mM Tris pH 7.5, 25 °C, 14 h; 10 μM RNA, 2 μM dye; with streptavidin
[3] = system: Tyr1M1 (RNA, aptamer) GGAUGUAACUGAAUGAAAUGGUGAAGGACGGGUCCAGCCCUUGGCAGUCAACUCGUGCGAUCGUGAAAACGGGGCAAGAUGGCCUUACAGCGGUCAAUACGGGGGUCAUCAGAUAGGGAGGCCAGGAUAUGUUGAGUAGAGUGUGAGCUCCGUAACUAGUUACAUC; test: Spinach sensor fluorescence turn-on; settings: 125 mM KCl, 5 mM MgCl2; 50 mM Tris-HCl pH 7.5; 2 μM DFHBI or DFHBI-1T; 1 mM ligand; 10 μM RNA

| Structure (SMILES) | binding [1] | binding [2] | binding [3] |
| --- | --- | --- | --- |
| CC1=N/C(=C\c2cc(F)c(O)c(F)c2)C(=O)N1CC(F)(F)F | yes | yes | – |
| N[C@@H](Cc1ccc(O)cc1)C(=O)O | – | – | yes |
